Measured values as given in ChEMBL document CHEMBL2057073, “Synthesis and structure-activity relationship studies of 1,3-disubstituted 2-propanols as BACE-1 inhibitors” (Bioorg Med Chem Lett, 2012).

Experiments:
Beta-secretase 1 [1] = target: T1, Beta-secretase 1 (Homo sapiens, UniProt P56817); experiment: Inhibition of BACE1 at 100 uM by FRET assay
Beta-secretase 1 [2] = target: T1, Beta-secretase 1; experiment: Inhibition of BACE1 at 50 uM by FRET assay
Beta-secretase 1 [3] = target: T1, Beta-secretase 1; experiment: Inhibition of BACE1 at 25 uM by FRET assay

T1 sequence (P56817 whole entry): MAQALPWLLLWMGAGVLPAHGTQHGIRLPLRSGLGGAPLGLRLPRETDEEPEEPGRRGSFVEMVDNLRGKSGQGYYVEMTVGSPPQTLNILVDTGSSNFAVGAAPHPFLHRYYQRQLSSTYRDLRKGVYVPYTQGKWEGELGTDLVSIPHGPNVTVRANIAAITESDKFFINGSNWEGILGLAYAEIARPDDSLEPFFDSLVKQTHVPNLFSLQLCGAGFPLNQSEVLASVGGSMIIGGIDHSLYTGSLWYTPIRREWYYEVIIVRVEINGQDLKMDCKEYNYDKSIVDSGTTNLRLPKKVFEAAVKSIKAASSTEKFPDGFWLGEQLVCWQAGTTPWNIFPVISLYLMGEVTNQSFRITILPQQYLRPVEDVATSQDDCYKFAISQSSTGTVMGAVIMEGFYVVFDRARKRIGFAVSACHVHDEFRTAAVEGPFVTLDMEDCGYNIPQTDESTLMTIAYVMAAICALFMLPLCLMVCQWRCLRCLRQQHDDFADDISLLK

Compound | inhibition (Beta-secretase 1 [1]) [%] | inhibition (Beta-secretase 1 [2]) [%] | inhibition (Beta-secretase 1 [3]) [%]
OC(CSc1ccc(Cl)cc1)Cn1c(-c2ccccc2)cc2ccccc21 (stereo unspecified) | 82 | 69 | 56
COc1ccc(SCC(O)Cn2ccc3ccccc32)c(OC)c1 (stereo unspecified) | 84 | 76 | 43
OC(CSc1ccc(F)cc1)CN1CCCCCC1 (stereo unspecified) | 10 | – | –
Oc1ccc(SCC(O)COc2ccc(-c3ccccc3)cc2)cc1 (stereo unspecified) | 17 | – | –
Cc1ccccc1SCC(O)COc1ccc(-c2ccccc2)cc1 (stereo unspecified) | 74 | – | –
COc1ccc(SCC(O)CN2CCC(C(O)(c3ccccc3)c3ccccc3)CC2)cc1 (stereo unspecified) | 0 | – | –
OC(CSc1nnnn1-c1ccccc1)Cn1c2ccccc2c2ccccc21 (stereo unspecified) | 64 | – | –
OC(CSc1ccccc1F)Cn1c2c(c3ccccc31)CCC2 (stereo unspecified) | 94 | 82 | 51
COc1ccc(SCC(O)CN2CCc3cc(OC)c(OC)cc3C2c2ccccc2)cc1 (stereo unspecified) | 20 | – | –
OC(CSc1ccccc1F)CN(Cc1ccccc1)Cc1ccccc1 (stereo unspecified) | 1 | – | –
CCc1cccc2ccn(CC(O)CSc3ccc(F)cc3)c12 (stereo unspecified) | 86 | 41 | 48
COc1cc2c(cc1OC)C(c1ccccc1)N(CC(O)CSc1ccccc1C)CC2 (stereo unspecified) | 24 | – | –
Cc1c(C)n(CC(O)CSc2ccccc2F)c2ccccc12 (stereo unspecified) | 56 | – | –
CCc1ccc(SCC(O)Cn2c(-c3ccccc3)cc3ccccc32)cc1 (stereo unspecified) | 79 | 78 | 42
OC(CSc1ccccc1Cl)CN(Cc1ccccc1)Cc1ccccc1 (stereo unspecified) | 45 | – | –
COc1ccc(SCC(O)Cn2c(C)c(C)c3ccccc32)c(OC)c1 (stereo unspecified) | 83 | 37 | 0
OC(CSc1ccc(Cl)cc1)CN(Cc1ccccc1)Cc1ccccc1 (stereo unspecified) | 24 | – | –
CCc1cccc2ccn(CC(O)CSc3ccc(OC)cc3OC)c12 (stereo unspecified) | 69 | – | –
Oc1ccccc1SCC(O)CN(Cc1ccccc1)Cc1ccccc1 (stereo unspecified) | 2 | – | –
COc1cc2c(cc1OC)C(c1ccccc1)N(CC(O)CSc1ccc(F)cc1)CC2 (stereo unspecified) | 15 | – | –
OC(CSc1nnnn1-c1ccccc1)Cn1ccc2ccccc21 (stereo unspecified) | 58 | – | –
COc1ccc(SCC(O)Cn2c(-c3ccccc3)cc3ccccc32)c(OC)c1 (stereo unspecified) | 77 | 42 | 21
CCc1cccc2ccn(CC(O)CSc3cc(C)cc(C)c3)c12 (stereo unspecified) | 90 | 71 | 40

Compound | inhibition (Beta-secretase 1 [1]) [%] | inhibition (Beta-secretase 1 [2]) [%] | inhibition (Beta-secretase 1 [3]) [%]
CCc1cccc2ccn(CC(O)CSc3ccccc3O)c12 (stereo unspecified) | 32 | – | –
CCc1cccc2ccn(CC(O)CSCCCc3ccccc3)c12 (stereo unspecified) | 0 | – | –
Cc1ccc(SCC(O)COc2ccc(-c3ccccc3)cc2)cc1 (stereo unspecified) | 27 | – | –
OC(CSc1nnnn1-c1ccccc1)CN(Cc1ccccc1)Cc1ccccc1 (stereo unspecified) | 0 | – | –
CCc1ccccc1SCC(O)COc1ccc(Cc2ccccc2)cc1 (stereo unspecified) | 71 | – | –
Cc1c(C)n(CC(O)CSc2cccc(N)c2)c2ccccc12 (stereo unspecified) | 55 | – | –
OC(CSc1ccc(F)cc1)Cn1ccc2ccccc21 (stereo unspecified) | 54 | – | –
CCc1ccccc1SCC(O)CN(Cc1ccccc1)Cc1ccccc1 (stereo unspecified) | 54 | – | –
Oc1ccccc1SCC(O)COc1ccc(Cc2ccccc2)cc1 (stereo unspecified) | 84 | 101 | 90
Oc1ccc(SCC(O)CN2CCC(C(O)(c3ccccc3)c3ccccc3)CC2)cc1 (stereo unspecified) | 0 | – | –
COc1ccc(SCC(O)COc2ccc(Cc3ccccc3)cc2)c(OC)c1 (stereo unspecified) | 67 | – | –
OC(CSc1ccccc1)CN(Cc1ccccc1)Cc1ccccc1 (stereo unspecified) | 0 | – | –
Cc1cc(C)cc(SCC(O)CN2CCCCCC2)c1 (stereo unspecified) | 15 | – | –
CCc1ccc(SCC(O)CN2CCc3cc(OC)c(OC)cc3C2c2ccccc2)cc1 (stereo unspecified) | 21 | – | –
Cc1cc(C)cc(SCC(O)CN2CCC(C(O)(c3ccccc3)c3ccccc3)CC2)c1 (stereo unspecified) | 0 | – | –
OC(COc1ccc(Cc2ccccc2)cc1)CSc1ccc(Cl)cc1 (stereo unspecified) | 63 | – | –
CCc1ccc(SCC(O)Cn2ccc3ccccc32)cc1 (stereo unspecified) | 72 | – | –
COc1cc2c(cc1OC)C(c1ccccc1)N(CC(O)CSc1nnnn1-c1ccccc1)CC2 (stereo unspecified) | 45 | – | –
Cc1cc(C)cc(SCC(O)COc2ccc(Cc3ccccc3)cc2)c1 (stereo unspecified) | 71 | – | –
Oc1ccccc1SCC(O)Cn1ccc2ccccc21 (stereo unspecified) | 24 | – | –
COc1ccc(SCC(O)Cn2c3c(c4ccccc42)CCC3)c(OC)c1 (stereo unspecified) | 75 | – | –
OC(COc1ccc(Cc2ccccc2)cc1)CSc1ccc(F)cc1 (stereo unspecified) | 62 | – | –

The remaining lines, values ahead:

inhibition (Beta-secretase 1 [1]) [%] | inhibition (Beta-secretase 1 [2]) [%] | inhibition (Beta-secretase 1 [3]) [%] | Compound
53 | – | – | OC(CSc1nnnn1-c1ccccc1)Cn1c(-c2ccccc2)cc2ccccc21 (stereo unspecified)
0 | – | – | COc1ccc(SCC(O)CN2CCC(C(O)(c3ccccc3)c3ccccc3)CC2)c(OC)c1 (stereo unspecified)
86 | 85 | 79 | OC(CSc1ccccc1)Cn1c2ccccc2c2ccccc21 (stereo unspecified)
0 | – | – | OC(CSc1ccc2ccccc2c1)CN1CCCCCC1 (stereo unspecified)
62 | – | – | OC(COc1ccc(Cc2ccccc2)cc1)CSc1nnnn1-c1ccccc1 (stereo unspecified)
3 | – | – | CCc1ccccc1SCC(O)CN1CCC(C(O)(c2ccccc2)c2ccccc2)CC1 (stereo unspecified)
85 | 64 | 35 | OC(CSc1ccccc1)Cn1c2c(c3ccccc31)CCC2 (stereo unspecified)
69 | – | – | CCc1ccc(SCC(O)COc2ccc(Cc3ccccc3)cc2)cc1 (stereo unspecified)
61 | – | – | Cc1c(C)n(CC(O)CSc2ccccc2O)c2ccccc12 (stereo unspecified)
93 | 64 | 31 | Cc1c(C)n(CC(O)CSc2nnnn2-c2ccccc2)c2ccccc12 (stereo unspecified)
2 | – | – | OC(CSc1ccc(F)cc1)CN(Cc1ccccc1)Cc1ccccc1 (stereo unspecified)
74 | – | – | COc1ccc(SCC(O)COc2ccc(-c3ccccc3)cc2)c(OC)c1 (stereo unspecified)
3 | – | – | COc1cc2c(cc1OC)C(c1ccccc1)N(CC(O)CSc1ccc(Cl)cc1)CC2 (stereo unspecified)
96 | 81 | 53 | OC(CSCCCc1ccccc1)Cn1c2c(c3ccccc31)CCC2 (stereo unspecified)
0 | – | – | OC(CSc1ccc(Cl)cc1)CN1CCCCCC1 (stereo unspecified)
7 | – | – | Cc1ccc(SCC(O)CN(Cc2ccccc2)Cc2ccccc2)cc1 (stereo unspecified)
3 | – | – | Oc1ccccc1SCC(O)CN1CCC(C(O)(c2ccccc2)c2ccccc2)CC1 (stereo unspecified)
1 | – | – | OC(CSc1nnnn1-c1ccccc1)CN1CCC(C(O)(c2ccccc2)c2ccccc2)CC1 (stereo unspecified)
2 | – | – | OC(CSc1ccccc1)CN1CCC(C(O)(c2ccccc2)c2ccccc2)CC1 (stereo unspecified)

inhibition (Beta-secretase 1 [1]) [%] | inhibition (Beta-secretase 1 [2]) [%] | inhibition (Beta-secretase 1 [3]) [%] | Compound
64 | – | – | OC(COc1ccc(Cc2ccccc2)cc1)CSc1ccccc1F (stereo unspecified)
5 | – | – | Cc1ccccc1SCC(O)CN1CCC(C(O)(c2ccccc2)c2ccccc2)CC1 (stereo unspecified)
10 | – | – | COc1ccc(SCC(O)CN(Cc2ccccc2)Cc2ccccc2)cc1 (stereo unspecified)
0 | – | – | OC(CSc1nnnn1-c1ccccc1)CN1CCCCCC1 (stereo unspecified)
83 | 54 | 11 | CCc1cccc2ccn(CC(O)CSc3ccc(OC)cc3)c12 (stereo unspecified)
0 | – | – | OC(CSc1ccc2ccccc2c1)CN1CCC(C(O)(c2ccccc2)c2ccccc2)CC1 (stereo unspecified)
23 | – | – | COc1cc2c(cc1OC)C(c1ccccc1)N(CC(O)CSc1ccccc1F)CC2 (stereo unspecified)
75 | – | – | Cc1c(C)n(CC(O)CSc2ccc(O)cc2)c2ccccc12 (stereo unspecified)
71 | – | – | OC(COc1ccc(-c2ccccc2)cc1)CSc1nnnn1-c1ccccc1 (stereo unspecified)
87 | – | – | Cc1c(C)n(CC(O)CSc2ccc3ccccc3c2)c2ccccc12 (stereo unspecified)
87 | 76 | 37 | OC(CSc1nnnn1-c1ccccc1)Cn1c2c(c3ccccc31)CCC2 (stereo unspecified)
74 | – | – | COc1ccc(SCC(O)Cn2c3c(c4ccccc42)CCCC3)c(OC)c1 (stereo unspecified)
38 | – | – | Cc1cc(C)cc(SCC(O)CN(Cc2ccccc2)Cc2ccccc2)c1 (stereo unspecified)
96 | 70 | 26 | COc1ccc(SCC(O)Cn2c(C)c(C)c3ccccc32)cc1 (stereo unspecified)
11 | – | – | COc1cc2c(cc1OC)C(c1ccccc1)N(CC(O)CSc1ccc(C)cc1)CC2 (stereo unspecified)
67 | – | – | Cc1ccccc1SCC(O)Cn1c(-c2ccccc2)cc2ccccc21 (stereo unspecified)
70 | – | – | COc1ccc(SCC(O)Cn2c(-c3ccccc3)cc3ccccc32)cc1 (stereo unspecified)
34 | – | – | COc1ccc(SCC(O)CN(Cc2ccccc2)Cc2ccccc2)c(OC)c1 (stereo unspecified)
80 | 69 | 22 | COc1ccc(SCC(O)Cn2c3ccccc3c3ccccc32)c(OC)c1 (stereo unspecified)

inhibition (Beta-secretase 1 [1]) [%] | inhibition (Beta-secretase 1 [2]) [%] | inhibition (Beta-secretase 1 [3]) [%] | Compound
100 | 93 | 68 | Cc1c(C)n(CC(O)CSc2ccccc2Cl)c2ccccc12 (stereo unspecified)
73 | – | – | Nc1cccc(SCC(O)Cn2c(-c3ccccc3)cc3ccccc32)c1 (stereo unspecified)
86 | 46 | – | CCc1cccc2ccn(CC(O)CSc3nnnn3-c3ccccc3)c12 (stereo unspecified)
69 | – | – | Cc1c(C)n(CC(O)CSc2ccccc2)c2ccccc12 (stereo unspecified)
85 | 74 | 27 | COc1ccc(SCC(O)Cn2c3c(c4ccccc42)CCC3)cc1 (stereo unspecified)
10 | – | – | OC(CSc1ccc(Cl)cc1)CN1CCC(C(O)(c2ccccc2)c2ccccc2)CC1 (stereo unspecified)
48 | – | – | COc1ccc(SCC(O)COc2ccc(Cc3ccccc3)cc2)cc1 (stereo unspecified)
45 | – | – | COc1ccc(SCC(O)COc2ccc(-c3ccccc3)cc2)cc1 (stereo unspecified)
33 | – | – | Oc1ccccc1SCC(O)COc1ccc(-c2ccccc2)cc1 (stereo unspecified)
8 | – | – | OC(CSc1ccccc1F)CN1CCC(C(O)(c2ccccc2)c2ccccc2)CC1 (stereo unspecified)
1 | – | – | CCc1ccccc1SCC(O)CN1CCc2cc(OC)c(OC)cc2C1c1ccccc1 (stereo unspecified)
15 | – | – | COc1cc2c(cc1OC)C(c1ccccc1)N(CC(O)CSc1cc(C)cc(C)c1)CC2 (stereo unspecified)
19 | – | – | OC(CSc1ccc2ccccc2c1)CN(Cc1ccccc1)Cc1ccccc1 (stereo unspecified)
24 | – | – | COc1ccc(SCC(O)CN2CCc3cc(OC)c(OC)cc3C2c2ccccc2)c(OC)c1 (stereo unspecified)
16 | – | – | OC(CSCCCc1ccccc1)CN(Cc1ccccc1)Cc1ccccc1 (stereo unspecified)
1 | – | – | CCc1ccc(SCC(O)CN2CCC(C(O)(c3ccccc3)c3ccccc3)CC2)cc1 (stereo unspecified)
2 | – | – | OC(CSc1ccccc1)CN1CCCCCC1 (stereo unspecified)
1 | – | – | Cc1ccc(SCC(O)CN2CCC(C(O)(c3ccccc3)c3ccccc3)CC2)cc1 (stereo unspecified)
5 | – | – | OC(CSc1ccccc1Cl)CN1CCC(C(O)(c2ccccc2)c2ccccc2)CC1 (stereo unspecified)
